Where a name gives a salt, the structure may show the parent alone.
Experiments:
steroid sulfatase [1] = molecular target: T1, steroid sulfatase (Rattus norvegicus, UniProt P15589); experiment: In vitro metabolism: steroid sulfatase activity by rat liver microsomes; format: in vitro ADME; design: 200 µg microsomal proteins prepared from rat brain or liver; from tissue; host or cells: rat liver microsomes; details: 37°C, 1 hour; for formation of DHEA (metabolism by sulfatase) / formation of PREG (metabolism by sulfatase): 8 µg steroid with 200 µg rat liver microsomal proteins
T1 sequence (P15589 20-577): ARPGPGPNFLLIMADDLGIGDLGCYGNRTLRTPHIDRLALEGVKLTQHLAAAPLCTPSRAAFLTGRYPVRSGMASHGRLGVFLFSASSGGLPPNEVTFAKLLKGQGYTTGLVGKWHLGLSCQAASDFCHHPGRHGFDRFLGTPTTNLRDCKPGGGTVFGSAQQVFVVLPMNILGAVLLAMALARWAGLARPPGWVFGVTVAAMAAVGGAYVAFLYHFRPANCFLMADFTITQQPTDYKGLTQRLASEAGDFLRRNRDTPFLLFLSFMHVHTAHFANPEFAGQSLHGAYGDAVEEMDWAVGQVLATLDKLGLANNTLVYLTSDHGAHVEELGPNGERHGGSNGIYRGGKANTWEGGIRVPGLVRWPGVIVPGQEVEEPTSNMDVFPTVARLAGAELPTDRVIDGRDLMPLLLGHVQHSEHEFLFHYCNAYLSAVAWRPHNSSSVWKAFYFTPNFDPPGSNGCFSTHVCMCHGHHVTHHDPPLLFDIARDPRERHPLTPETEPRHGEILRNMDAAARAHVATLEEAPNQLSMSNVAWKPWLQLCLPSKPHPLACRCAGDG
Protocol: (§1) The metabolism of PREGS and ent-PREGS was examined after incubation of 8 µg of each steroid with 200 µg microsomal proteins prepared from rat brain or liver, at 37°C for lhour, and the unconjugated PREG was quantified in the brain by gas-chromatography-mass spectrometry (Liere et al., 2000, J. Chromatogr. B Biomed. Sci. Appl. 2000,739:301-12)
as §1, with “DHEAS” for “PREGS”, “ent-DHEAS” for “ent-PREGS”, “1hour,” for “lhour,”, “DHEA” for “PREG”

steroid sulfatase [2] = molecular target: T1, steroid sulfatase; experiment: In vitro metabolism: steroid sulfatase activity by rat brain microsomes; format: in vitro ADME; design: 200 µg microsomal proteins prepared from rat brain or liver; from tissue; host or cells: rat liver microsomes; details: 8 µg steroid with 200 µg rat brain microsomal proteins, 37°C, 1 hour
Protocol: as §1
as §1, with “DHEAS” for “PREGS”, “ent-DHEAS” for “ent-PREGS”, “1hour,” for “lhour,”, “DHEA” for “PREG”

steroid sulfatase [3] = molecular target: T1, steroid sulfatase; experiment: In vivo metabolism in rat brain: steroid sulfatase activity (GC-MS of unconjugated PREG); details: 5 min after ICV administration of 1µg
Protocol: The metabolism of PREGS and ent-PREGS was investigated 5 min after ICV administration of 1µg of each compound in rat and the unconjugated PREG was quantified in the brain by gas-chromatography-mass spectrometry (Liere et al., 2000, J. Chromatogr. B Biomed Sci. Appl. 2000,739:301-12).

Swiss mice = experiment: Two-trial memory task (spatial recognition) in a Y-maze after ICV administration, mice; format: in vivo; details: ICV immediately after acquisition, 6-h intertrial interval, Newman-Keuls (PREGS P<0.05; ent-PREGS P<0.01)
Protocol: (§2) Male Sprague-Dawley rats and Swiss mice (Janvier, Le Genest St-Isle, France) 2 months of age and weighing 250-300g for rats and 30-32g for mice at the time of surgery were used. They were grouped-housed in a temperature (22°C ± 1°C) and humidity (50% ± 5%) controlled room. They were maintained on a 12-h light/12-h dark (08.00-20.00) schedule and had access to food and water ad libitum.
(§3) Rats were anaesthesized with a mixture of 5% ketamine (Imalgène 1000, Merial, France) and 0.1% acepromazine (Vetranquil 1%,) in saline, administered i.p. at 1.5 ml/kg. Mice were anesthetized with a mixture of 0.5% ketamine and 0.1% xylazine, under the volume of 15 ml/kg.
(§4) Animals were mounted in a stereotaxic and implanted with unilateral stainless steel cannula guides (23-gauge, 7 mm long) above the lateral ventricle, according to the coordinates from the atlas of rats and mice. Cannulas were secured to the skull with stainless steel screws and dental cement.
Animals were used for experiments after a 7-day postrecovery period. Each animal was handled daily for 3 days before the experiments and on the day before each experiment, cannula function was confirmed by gravity flow of isotonic saline. […]
(§5) The test consisted of two trials, separated by a 6-h intertrial interval. […] The time spent in each arm of the maze was recorded manually every minute. […]

NMDA receptor [4] = experiment: Coadministration of steroids with the NMDA receptor antagonist AP5, Y-maze recognition performance, rats; format: in vivo; details: for memory performances when coadministered with AP5 compared to the group treated with the steroid alone: AP5 10 nmol ICV together with PREGS 0.5 nmol or ent-PREGS 0.05 nmol; for recognition performances of steroid alone compared with vehicle-controls: ICV effective doses alone (PREGS 0.5 nmol, ent-PREGS 0.05 nmol), P < 0.05
Protocol: (§6) The two-trial memory task based on spontaneous exploration of novelty was adapted from the ones described by Dellu et al. (1992, Brain Res., 588, 132-9) in rats and by Ladurelle et al. (2000, Brain Res., 858, 371-9) in mice.
(§7) Experiments were performed in a gray polyvinychloride Y-maze. The size of each arm was 40 cm long, 15 cm wide and 35 cm high for rats, and 30 cm long, 10 cm wide and 17 cm high for mice. The floor of the maze was covered with odor-saturated sawdust which was mixed after each trial. The maze was placed in a sound-attenuated room under dim illumination. Numerous visual cues were placed on the walls of the testing room and kept constant during the entire behavioral testing..
(§8) The test consisted of two trials, separated by a 6-h intertrial interval. During the first trial (acquisition phase), one arm of the Y-maze (subsequently called novel arm) was closed with a guillotine door, thus allowing the animal to explore only the other two arms, during 5 min and 3 min for rats and mice, respectively. During the second trial (retention phase), the animals had access to the three arms for 5 min. The time spent in each arm of the maze was recorded manually every minute. Recognition was assumed to have occurred when the animal spent more time in the novel arm compared with the familiar ones. The total number of arm visits provided a measure of general motor activity.
(§9) A between-subjects design was used where each observation was made for a separate animal. Data were reported as the amount of time spent in the novel arm relative to the total duration of visits in the three arms (novel/total x 100) during the first 3 min.
(§10) They were expressed as mean ± SEM and analyzed by using one-way ANOVA followed by Newmann-Keuls posthoc test. Significance was defined as P<0.05 or P<0.01.
(§11) The effects of the ICV injection of AP5, at ICV doses of 2 and 10 nmol in mice and rats, respectively, was studied on the memory-enhancing effects of PREGS (0.5 nmol in rats and 5.0 nmol in mice) and ent-PREGS (0.05 nmol in rats and 5.0 nmol in mice).

Male Sprague-Dawley rats = experiment: Two-trial memory task (spatial recognition) in a Y-maze after ICV administration, rats; format: in vivo; details: ICV immediately after acquisition, 6-h intertrial interval, Newman-Keuls P<0.05
Protocol: as §2, §3, §4
Animals were used for experiments after a 7-day postrecovery period. Each animal was handled daily for 3 days before the experiments and on the day before each experiment, cannula function was confirmed by gravity flow of isotonic saline.
PREGS was obtained from Steraloïds (Newport, RI, Etats-Unis); the steroid enantiomers ent-SPREG et ent-SDHEA were synthesized as previously described (Nilsson et al., 1998, op. cit.). All compounds were dissolved in […] (vehicle)
PREGS was administered iCV at doses of 0 (vehicle), 0.05, 0.25, 0.5, 2.5, 5.0 and 12.5 nmol in rats and of 0 (vehicle), 0.05, 0.25, 0.5, 2.5, 5.0 and 12.5 nmol mice
ent-PREGS was injected ICV at doses of 0 (vehicle), 0.025, 0.05, 0.25, 0.5 nmol in rats and 0 (vehicle), 0.025, 0.05, 0.25, 0.5 and 2.5 nmol in mice.
ent-SDHEA was administered iCV at doses of 0; 0,25; 0,25 nmol in rats.
Drug and control-vehicle solutions were injected unilaterally through the cannula guide. […]
as §5

NMDA receptor [5] = experiment: Coadministration of steroids with the NMDA receptor antagonist AP5, Y-maze recognition performance, mice; format: in vivo; details: for memory performances when coadministered with AP5 compared to the group treated with the steroid alone: AP5 2 nmol ICV together with PREGS 5.0 nmol or ent-PREGS 5.0 nmol (so in the source); for recognition performances of steroid alone compared with vehicle-controls: ICV effective doses alone (PREGS 5.0 nmol, ent-PREGS 5.0 nmol as printed), P < 0.05
Protocol: as §6, §7, §8, §9, §10, §11

[6] = rat liver versus brain microsomes, 8 µg steroid, 200 µg protein

Row | Compound | formation of DHEA (metabolism by sulfatase) (steroid sulfatase [1]) | levels of DHEA in the liver relative to the brain (steroid sulfatase [1]; [6]) [times] | formation of DHEA (metabolism by sulfatase) (steroid sulfatase [2]) | brain content of PREG compared with saline-injected control rats (steroid sulfatase [3]) | dose at which % time spent in the novel arm / memory performance was significantly increased relative to vehicle-control (Swiss mice) [nmol] | formation of PREG (metabolism by sulfatase) (steroid sulfatase [1]) | formation of PREG (metabolism by sulfatase) (steroid sulfatase [2]) | memory performances when coadministered with AP5 compared to the group treated with the steroid alone (NMDA receptor [4]) | recognition performances of steroid alone compared with vehicle-controls (NMDA receptor [4]) | dose at which % time spent in the novel arm / memory performance was significantly increased relative to vehicle-control (Male Sprague-Dawley rats) | memory performances when coadministered with AP5 compared to the group treated with the steroid alone (NMDA receptor [5]) | recognition performances of steroid alone compared with vehicle-controls (NMDA receptor [5]) | recognition performance of AP5-treated group versus vehicle-control (NMDA receptor [4]; AP5 alone 10 nmol ICV, P > 0.05) | recognition performance of AP5-treated group versus vehicle-control (NMDA receptor [5]; AP5 alone 2 nmol ICV, P > 0.05) | levels of PREG in the liver relative to the brain (steroid sulfatase [1]; [6]) [times]
1 | C[C@]12CC[C@H](OS(=O)(=O)O)CC1=CC[C@@H]1[C@@H]2CC[C@]2(C)C(=O)CC[C@@H]12 [DHEAS, dehydroepiandrosterone sulfate] | metabolized into DHEA | 5 | metabolized into DHEA | – | – | – | – | – | – | – | – | – | – | – | –
2 | CC(=O)[C@@H]1CC[C@@H]2[C@H]3CC=C4C[C@H](OS(=O)(=O)O)CC[C@@]4(C)[C@@H]3CC[C@]21C [ent-PREGS] | – | – | – | did not significantly differ | 0.5 | undectectable | undectectable | did not perform differently | significantly increased | 0.05 nmol | did not perform differently | significantly increased | – | – | –
3 | NC(CCCP(=O)(O)O)C(=O)O (stereo not drawn) [AP5] | – | – | – | – | – | – | – | – | – | – | – | – | did not significantly differ | did not significantly differ | –
4 | C[C@@]12CC[C@@H]3[C@H](CC=C4C[C@H](OS(=O)(=O)O)CC[C@]43C)[C@H]1CCC2=O [ent-DHEAS] | undectectable | – | undectectable | – | – | – | – | – | – | 0,025 nmol | – | – | – | – | –
5 | CC(=O)C1CCC2C3CC=C4CC(OS(=O)(=O)O)CCC4(C)C3CCC12C (stereo not drawn) [PREGS, pregnenolone sulfate] | – | – | – | signicantly increased | 5.0 | metabolized into PREG | metabolized into PREG | significantly reduced | significantly increased | 0.5 nmol | significantly reduced | significantly increased | – | – | 4

Reference: patent EP1310258A1, “Enantiomers of steroids for the enhancement of memory and cognitive function” (Baulieu, Etienne-Emile, priority 2001, dated 2003)
